Laboratory results as given in US10501449B2 (priority 2018, dated 2019).

Assays:
[1] = target: hROMK (human Kir1.1) (Homo sapiens (Human), UniProt P48048); test: cell-based; conditions: CHO T-Rex hROMK stable cell line; thallium flux; 10-point concentration response curve; read-out: Human ROMK Th Flux IC50
[2] = target: hERG channels (Homo sapiens (Human), UniProt Q12809); test: hERG Manual Patch Clamp Assay; format: cell-based; conditions: human, HEK 293 cells stably expressing hERG channels, pH 7.4, 1 uM, read-out: hERG EP % Inh @ 1 uM
Chain of hERG channels (Q12809 whole entry): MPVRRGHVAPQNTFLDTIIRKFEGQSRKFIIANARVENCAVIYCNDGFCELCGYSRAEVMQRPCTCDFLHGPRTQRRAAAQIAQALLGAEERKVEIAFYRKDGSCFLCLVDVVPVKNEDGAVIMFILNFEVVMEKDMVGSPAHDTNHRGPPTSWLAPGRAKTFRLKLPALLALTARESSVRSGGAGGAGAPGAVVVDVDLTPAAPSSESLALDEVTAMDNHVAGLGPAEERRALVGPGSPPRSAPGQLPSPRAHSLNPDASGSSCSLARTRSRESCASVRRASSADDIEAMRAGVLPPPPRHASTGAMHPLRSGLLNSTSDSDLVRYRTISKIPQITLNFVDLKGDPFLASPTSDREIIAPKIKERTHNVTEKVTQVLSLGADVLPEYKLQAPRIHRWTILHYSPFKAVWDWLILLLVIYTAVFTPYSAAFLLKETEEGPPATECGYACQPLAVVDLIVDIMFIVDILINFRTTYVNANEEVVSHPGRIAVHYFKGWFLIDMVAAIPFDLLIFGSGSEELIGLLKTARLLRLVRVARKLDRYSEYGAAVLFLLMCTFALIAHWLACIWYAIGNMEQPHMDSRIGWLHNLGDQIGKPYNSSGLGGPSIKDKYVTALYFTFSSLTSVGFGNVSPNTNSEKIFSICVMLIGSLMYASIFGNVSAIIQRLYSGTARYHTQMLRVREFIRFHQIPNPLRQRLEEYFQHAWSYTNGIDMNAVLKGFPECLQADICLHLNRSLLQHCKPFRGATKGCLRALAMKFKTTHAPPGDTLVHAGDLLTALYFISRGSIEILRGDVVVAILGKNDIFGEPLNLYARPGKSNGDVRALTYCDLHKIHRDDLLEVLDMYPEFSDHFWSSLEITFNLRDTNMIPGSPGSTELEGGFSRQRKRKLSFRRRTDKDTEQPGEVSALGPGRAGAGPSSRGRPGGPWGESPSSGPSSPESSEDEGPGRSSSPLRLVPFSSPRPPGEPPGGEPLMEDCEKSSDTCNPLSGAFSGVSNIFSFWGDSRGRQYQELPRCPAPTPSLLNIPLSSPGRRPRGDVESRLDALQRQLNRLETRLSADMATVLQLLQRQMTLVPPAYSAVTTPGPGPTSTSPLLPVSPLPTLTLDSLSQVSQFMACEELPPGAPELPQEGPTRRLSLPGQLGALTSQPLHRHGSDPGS
Description: hERG electrophysiology assay: The experimental compounds were assessed for hERG activity on HEK 293 cells stably expressing hERG channels using patch clamp technique. Coverslips plated with hERG expressing cells were placed in the experimental chamber and were perfused with a solution composed of (in mM): 140 NaCl, 4 KCl, 1.8 CaCl2, 1 MgCl2, 10 Glucose, 10 HEPES (pH 7.4, NaOH) at room temperature. Borosilicate patch pipettes had tip resistances of 2-4 Mohms when filled with an internal solution containing: 130 KCl, 1 MgCl2, 1 CaCl2, 10 EGTA, 10 HEPES, 5 ATP-K2 (pH 7.2, KOH). The cells were clamped at −80 mV in whole cell configuration using an Axopatch 200B (Axon instruments, Union City, Calif.) patch clamp amplifier controlled by pClamp (Axon instruments) software. Upon formation of a gigaseal, the following voltage protocol was repeatedly (0.05 Hz) applied to record tail currents: depolarization step from −80 mV to +20 mV for 2 seconds followed by a hyperpolarization step to −65 mV (3 seconds) to elicit tail currents. Compounds were applied after stabilization of tail current. First, tail currents were recorded in presence of extracellular solution alone (control) and subsequently, in extracellular solution containing increasing compound concentrations. Each compound concentration was applied for 2-5 minutes. The percentage inhibition at each concentration was calculated as reduction in peak tail current with respect to the peak tail current recorded in the presence of control solution. Data analysis was performed in a custom made template. The percent inhibitions at different concentrations were plotted to obtain a concentration response curve, which was subsequently fitted with a four parameter equation to calculate hERG IC50 value.

Chain of hROMK (human Kir1.1) (P48048 whole entry): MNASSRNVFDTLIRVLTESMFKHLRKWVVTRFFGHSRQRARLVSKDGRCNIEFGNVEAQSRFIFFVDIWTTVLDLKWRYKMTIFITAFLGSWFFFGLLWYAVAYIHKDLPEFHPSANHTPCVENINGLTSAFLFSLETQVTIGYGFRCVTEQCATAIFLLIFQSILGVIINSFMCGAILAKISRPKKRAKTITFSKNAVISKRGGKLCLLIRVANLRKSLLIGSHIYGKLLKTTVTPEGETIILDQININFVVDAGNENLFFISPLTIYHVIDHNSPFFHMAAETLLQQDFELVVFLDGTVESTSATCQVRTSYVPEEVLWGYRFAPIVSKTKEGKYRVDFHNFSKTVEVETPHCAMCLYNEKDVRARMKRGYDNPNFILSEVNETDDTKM

Compound | IC50 [1] | inhibition at 1 µM [2]
Cc1c([C@@H]2CN(Cc3cn(-c4ccc(C(F)F)nc4)cn3)C[C@H](C)N2)ccc2c1COC2=O [Example 134-I, 5-((2R,6S)-4-((1-(6-(difluoromethyl)pyridin-3-yl)-1H-imidazol-4-yl)methyl)-6-methylpiperazin-2-yl)-4-methylisobenzofuran-1(3H)-one] | 43 nM | 22%
Cc1c([C@@H]2CN(Cc3ccc(-n4ccc(C#N)n4)nc3)CCN2)ccc2c1COC2=O [Example 136-I, (R)-1-(5-((3-(4-methyl-1-oxo-1,3-dihydroisobenzofuran-5-yl)piperazin-1-yl)methyl)pyridin-2-yl)-1H-pyrazole-3-carbonitrile] | 28 nM | 29%
Cc1c([C@@H]2CN(Cc3cnn(-c4cc(N5CCOCC5)c(C#N)cn4)c3)CCN2)ccc2c1COC2=O [Example 220-I, (R)-6-(4-((3-(4-methyl-1-oxo-1,3-dihydroisobenzofuran-5-yl)piperazin-1-yl)methyl)-1H-pyrazol-1-yl)-4-morpholinonicotinonitrile] | 29 nM | 30%
Cc1c([C@@H]2CN(Cc3cnn(-c4ccnc(C(F)(F)F)c4)c3)C[C@H](C)N2)ccc2c1COC2=O [Example 128-I, 4-methyl-5-((2R,6S)-6-methyl-4-((1-(2-(trifluoromethyl)pyridin-4-yl)-1H-pyrazol-4-yl)methyl)piperazin-2-yl)isobenzofuran-1(3H)-one] | 66 nM | 19%
COc1c(CN2CCN[C@H](c3ccc4c(c3C)COC4=O)C2)cnn1-c1cc(C)c(C#N)cn1 [Example 6-I, (R)-6-(5-methoxy-4-((3-(4-methyl-1-oxo-1,3-dihydroisobenzofuran-5-yl)piperazin-1-yl)methyl)-1H-pyrazol-1-yl)-4-methylnicotinonitrile] | 40 nM | 38%
Cc1cc(-n2cc(CN3CC(c4ccc5c(c4C)COC5=O)NCC3CO)cn2)ncc1C#N (single isomer, unassigned) [Example 123-I, 6-(4-((2-(hydroxymethyl)-5-(4-methyl-1-oxo-1,3-dihydroisobenzofuran-5-yl)piperazin-1-yl)methyl)-1H-pyrazol-1-yl)-4-methylnicotinonitrile] | 74 nM | 7.2%
Cc1c([C@@H]2CN(Cc3cnn(-c4ccn(C(F)F)c(=O)c4)c3)C[C@H](C)N2)ccc2c1COC2=O [Example 129-I, 1-(difluoromethyl)-4-(4-(((3S,5R)-3-methyl-5-(4-methyl-1-oxo-1,3-dihydroisobenzofuran-5-yl)piperazin-1-yl)methyl)-1H-pyrazol-1-yl)pyridin-2(1H)-one] | 26 nM | 32%
Cc1cc(-n2cc(CN3CCO[C@H](c4ccc5c(c4C)COC5=O)C3)cn2)ccc1C#N [Example 46-I, (R)-2-methyl-4-(4-((2-(4-methyl-1-oxo-1,3-dihydroisobenzofuran-5-yl)morpholino)methyl)-1H-pyrazol-1-yl) benzonitrile] | 26 nM | 43%
Cc1cc(-n2cc(CN3CCC(C)(O)C(c4ccc5c(c4C)COC5=O)C3)cn2)ncc1C#N (single isomer, unassigned) [Example 114-I, 6-(4-((4-hydroxy-4-methyl-3-(4-methyl-1-oxo-1,3-dihydroisobenzofuran-5-yl)piperidin-1-yl)methyl)-1H-pyrazol-1-yl)-4-methylnicotinonitrile] | 32 nM | 4.2%
Cc1nn(-c2ccc(CN3CCN[C@H](c4ccc5c(c4C)COC5=O)C3)nc2)cc1C#N [Example 241-I, (R)-3-methyl-1-(6-((3-(4-methyl-1-oxo-1,3-dihydroisobenzofuran-5-yl)piperazin-1-yl)methyl)pyridin-3-yl)-1H-pyrazole-4-carbonitrile] | 41 nM | 18%
CCc1nn(-c2ccc(CN3CCN[C@H](c4ccc5c(c4C)COC5=O)C3)cn2)cc1C#N [Example 226-I, (R)-3-ethyl-1-(5-((3-(4-methyl-1-oxo-1,3-dihydroisobenzofuran-5-yl)piperazin-1-yl)methyl)pyridin-2-yl)-1H-pyrazole-4-carbonitrile] | 14 nM | 33%
Cc1cc(-n2nnc(CN3C[C@@H](c4ccc5c(c4C)COC5=O)N[C@@H](C)C3)n2)ccc1C#N [Example 265-I, 2-methyl-4-(5-(((3S,5R)-3-methyl-5-(4-methyl-1-oxo-1,3-dihydroisobenzofuran-5-yl)piperazin-1-yl)methyl)-2H-tetrazol-2-yl)benzonitrile] | 22 nM | 20%
COc1cc(-n2cc(CN3C[C@@H](c4ccc5c(c4C)COC5=O)N[C@@H](C)C3)nn2)nc(C)c1C#N [Example 86-I, 4-methoxy-2-methyl-6-(4-(((3S,5R)-3-methyl-5-(4-methyl-1-oxo-1,3-dihydroisobenzofur-an-5-yl)piperazin-1-yl)methyl)-1H-1,2,3-triazol-1-yl)nicotinonitrile] | 64 nM | 8.8%
Cc1cn(-c2cc(C)c(CN3CCN[C@H](c4ccc5c(c4C)COC5=O)C3)cn2)cn1 [Example 141-I, (R)-4-methyl-5-(4-((4-methyl-6-(4-methyl-1H-imidazol-1-yl)pyridin-3-yl)methyl)piperazin-2-yl)isobenzofuran-1(3H)-one] | 69 nM | 7.1%
Cc1cc(-n2cc(CN3CC(O)C(c4ccc5c(c4C)COC5=O)C3)cn2)ncc1C#N (single isomer, unassigned) [Example 211-I, 6-(4-((3-hydroxy-4-(4-methyl-1-oxo-1,3-dihydroisobenzofuran-5-yl)pyrrolidin-1-yl)methyl)-1H-pyrazol-1-yl)-4-methylnicotinonitrile] | 30 nM | 58%
COc1cc(-c2cc(CN3C[C@@H](c4ccc5c(c4C)COC5=O)N[C@@H](C)C3)on2)ncc1C#N [Example 269-I, 4-methoxy-6-(5-(((3S,5R)-3-methyl-5-(4-methyl-1-oxo-1,3-dihydroisobenzofuran-5-yl)piperazin-1-yl)methyl)isoxazol-3-yl)nicotinonitrile] | 24 nM | 9.5%
Cc1cc(-n2cc(CN3CC(c4ccc5c(c4C)COC5=O)NC(C(F)F)C3)cn2)ncc1C#N (single isomer, unassigned) [Example 205-I, 6-(4-((3-(difluoromethyl)-5-(4-methyl-1-oxo-1,3-dihydroisobenzofuran-5-yl)piperazin-1-yl)methyl)-1H-pyrazol-1-yl)-4-methylnicotinonitrile] | 71 nM | 10%
Cc1cc(-n2cc(CN3CCNC(c4ccc5c(c4C)COC5=O)C3C)cn2)ncc1C#N (centres unmarked) [Example 115-I, 4-methyl-6-(4-((2-methyl-3-(4-methyl-1-oxo-1,3-dihydroisobenzofuran-5-yl)piperazin-1-yl)methyl)-1H-pyrazol-1-yl)nicotinonitrile] |  | 45%
COc1cc(N2CCC(CN3CCN[C@H](c4ccc5c(c4C)COC5=O)C3)C2)ncc1C#N (single isomer, unassigned) [Example 154-I] |  | 43%
COc1cc(-n2ncc(CN3CC[C@@H](O)[C@H](c4ccc5c(c4C)COC5=O)C3)n2)ncc1C#N [Example 111-I, 6-(4-(((3R,4R)-4-hydroxy-3-(4-methyl-1-oxo-1,3-dihydroisobenzofur-an-5-yl)piperidin-1-yl)methyl)-2H-1,2,3-triazol-2-yl)-4-methoxynicotinonit-rile] |  | 5.1%
COc1cc(-n2cc(CN3CCO[C@H](c4ccc5c(c4C)COC5=O)C3)cn2)ccc1C#N [Example 49-I, (R)-2-methoxy-4-(4-((2-(4-methyl-1-oxo-1,3-dihydroisobenzofuran-5-yl)morpholino)methyl)-1H-pyrazol-1-yl) benzonitrile] |  | 27%
[2H]C([2H])([2H])Oc1cc(-n2cc(CN3CCN[C@H](c4ccc5c(c4C)COC5=O)C3)nn2)ncc1C#N [Example 263-I, (R)-4-(methoxy-d3)-6-(4-((3-(4-methyl-1-oxo-1,3-dihydroisobenzofuran-5-yl)piperazin-1-yl)methyl)-1H-1,2,3-triazol-1-yl)nicotinonitrile] |  | 10%
Cc1c([C@@H]2CN(Cc3cnn(-c4cc(C(F)(F)F)c(C#N)cn4)c3)C[C@H](C)N2)ccc2c1COC2=O [Example 196-I, 6-(4-(((3S,5R)-3-methyl-5-(4-methyl-1-oxo-1,3-dihydroisobenzofuran-5-yl)piperazin-1-yl)methyl)-1H-pyraozl-1-yl)-4-(trifluoromethyl)nicotinonitrile] |  | 18%
Cc1cc(-n2nc(C)c(CN3CCN[C@H](c4ccc5c(c4C)COC5=O)C3)n2)ncc1C#N [Example 169-I, (R)-4-methyl-6-(4-methyl-5-((3-(4-methyl-1-oxo-1,3-dihydroisobenzofuran-5-yl)piperazin-1-yl)methyl)-2H-1,2,3-triazol-2-yl)nicotinonitrile] |  | 12%
Cc1cc(-n2cc(CN3CC(=O)N[C@H](c4ccc5c(c4C)COC5=O)C3)cn2)ncc1C#N [Example 15-I, (R)-4-methyl-6-(4-((3-(4-methyl-1-oxo-1,3-dihydroisobenzofuran-5-yl)-5-oxopiperazin-1-yl)methyl)-1H-pyrazol-1-yl)nicotinonitrile] |  | 5.8%
Cc1c([C@@H]2CN(Cc3cnn(-c4ccc(C#N)nc4)c3)CCO2)ccc2c1COC2=O [Example 48-I, (R)-5-(4-((2-(4-methyl-1-oxo-1,3-dihydroiso-benzofuran-5-yl)morpho-lino)methyl)-1H-pyrazol-1-yl)picolinonitrile] |  | 78%
Cc1cn(-c2ccc(CN3CCN[C@H](c4ccc5c(c4C)COC5=O)C3)nn2)cn1 [Example 153-I, (R)-4-methyl-5-(4-((6-(4-methyl-1H-imidazol-1-yl)pyridazin-3-yl)methyl)piperazin-2-yl)isobenzofuran-1(3H)-one] |  | 10%
